# Results reported in PMC3744471, “Mitochondria Are the Target Organelle of Differentiation-Inducing Factor-3, an Anti-Tumor Agent Isolated from Dictyostelium Discoideum” (PLoS ONE, 2013).
# Tests used:
# [1] = tested on: LM8 cells; test: Cell growth assay (Alamar blue), LM8; format: cell-based, mouse; settings: for Effect on cell growth in LM8 cells: BODIPY-DIF-3 5–20 µM, CCCP 2–10 µM, 4 days; for IC50: Mus musculus, 72 h, LM8 cells, 3 days, Alamar blue
# Procedure: HeLa, LM8, and 3T3-L1 cells were cultured for 3 days at 2.5–5×10^3 cells/well in 12-well plates with each well filled with 1 ml of DMEM-FBS (for HeLa and 3T3-L1) or MEM-α-FBS (for LM8) together with drugs at various concentrations. Then, the incubation media were discarded and the cells were washed with 1 ml of PBS(–) (20 mM phosphate buffered saline, pH 7.4) and incubated with 1 ml of fresh DMEM-FBS (HeLa and 3T3-L1) or MEM-α-FBS (LM8) containing 5% (v/v) of Alamar blue (a cell number indicator; Wako Pure Chemical Industries, Osaka, Japan) until the color changed. The relative cell number was assessed by measuring absorbance at 570 nm (reference at 595 nm) as described previously, [14]; DIF-related compounds and BODIPY-conjugated compounds hardly disturbed the cell number assessment with Alamar blue (data not shown), probably because the additive compounds were washed out when cell number was assessed. For determination of the 50% inhibitory concentration (IC50) of each drug, the cells were cultured for 3 days in the presence of each drug at various concentrations. Relative cell numbers were determined for each concentration for each drug and the IC50 was determined from the dose-response curves.
# Supplementary file pone.0072118.s001.tif: Figure S1 Effects of BODIPY-DIF-3 and CCCP on cell growth, and cellular localization of BODIPY-DIF-3 in LM8 cells. (A) Cells were incubated for 4 days with 5–20 µM of BODIPY-DIF-3 (closed circles) or 2–10 µM of CCCP (closed triangles), and relative cell number was assessed by the use of Alamar blue. Data are the mean values and SD (bars) of three independent experiments. (B) Cells were incubated for 0.5 h or 3 days with 20 µM of BODIPY-DIF-3, washed free of the additive, and observed microscopically. (C) Cells were incubated for 0.5 h with BODIPY-DIF-3 (20 µM), Hoechst (0.1 µg/ml), and MitoTracker (0.1 µM), washed free of the additives, and observed by using a high-magnification fluorescence microscope. (D) Cells were incubated for 3 days with BODIPY-DIF-3 (20 µM) and then for 0.5 h with Hoechst (0.1 µg/ml) and MitoTracker (0.1 µM). Cells were washed free of the additives and observed by using a high-magnification fluorescence microscope. (TIF) Click here for additional data file.
# [2] = tested on: mouse liver mitochondria; test: Mitochondrial oxygen consumption (Clark-type oxygen electrode); format: biochemical; settings: for Effect on basal rate of O2 consumption: 1–100 µM; for PC100 (µM) for Mito. O2 consumption: 100% promoting concentration: doubles the basal rate of oxygen consumption, 30°C
# Procedure: Mitochondria were isolated from mouse liver (ICR; 7–10 week-old females) by differential centrifugation as described previously. Cells were homogenized in a Potter glass homogenizer with H-Buffer (250 mM sucrose, 10 mM Tris-HCl pH 7.4), and centrifuged at 800g for 1 min at 4°C. The supernatant was centrifuged at 6,000g for 5 min, and the resulting pellet, the crude mitochondrial fraction, was suspended in H-Buffer. The suspension was layered over a discontinuous sucrose gradient consisting of 1.1 M and 1.6 M sucrose in a Tris buffer (10 mM Tris-HCl pH 7.4), and centrifuged for 3 h at 90,000g at 4°C. The interface was collected in Tris buffer and centrifuged at 6,000g for 5 min. The resulting pellets were suspended in Tris buffer and used for experiments after confirming the presence of the mitochondrial marker cytochrome c.
# Mitochondrial oxygen consumption was determined using a Clark-type oxygen electrode (Strathkelvin Instruments Ltd., North Lanarkshire, Scotland) as described, [39]. The mitochondria-enriched fraction was incubated at 30°C in oxygen measurement buffer (225 mM mannitol, 75 mM sucrose, 10 mM KCl, 0.1 mM EDTA, 3 mM phosphate, 5 mM succinate, 5 mM glutamate, and 20 mM Tris-HCl pH 7.4) in the presence or absence of various concentrations of the DIF-like molecules or CCCP. After recording ‘State 4’ of the respiration reaction, an aliquot of ADP was added to a final concentration of 200 µM to induce ‘State 3’. The PC100 (100% promoting concentration) of each additive was defined as the drug concentration that doubled the basal rate of oxygen consumption during State 3, which was calculated from the dose-response plot for the rate of oxygen consumption (Figure 8).
# [3] = tested on: cyclin D1 and cyclin D3 in HeLa cells; test: Western blotting of cyclin D expression; format: cell-based, human; settings: 20 h, DIF-3 20 µM, Bu-DIF-3 5–7.5 µM, BODIPY-DIF-3 20 µM, CCCP 10 µM, azide 0.01%
# Procedure: HeLa cells were incubated for 20 h with 1 ml of DMEM-FBS containing the indicated additives in 12-well plates (2–4×10^5 cells/well), washed twice with PBS(–), harvested by adding 100–200 µl of an SDS-sample buffer solution (in proportion to cell density: relative cell number), sonicated (heated), and used for SDS-PAGE. Western blot transfer and immunoblotting were performed as described previously, by using a primary antibody for cyclin D1, cyclin D2, cyclin D3, or GAPDH, and a second antibody, an alkaline phosphatase-conjugated anti-mouse or anti-rabbit IgG antibody. […] Visualized protein bands were then digitized and quantified by using Adobe Photoshop CS4 (version 11.0) (Adobe, San Jose, CA, USA) and ImageJ Software (version 1.4) (http://rsb.info.nih.gov/ij/).
# [4] = tested on: mitochondria in HeLa cells; test: Mitochondrial morphology by fluorescence microscopy; format: cell-based, human; settings: BODIPY-DIF-3 20 µM 1 day, Bu-DIF-3 5 µM, CCCP 10 µM 3 days
# Procedure: For high magnification multi-color imaging, cells were incubated for the appropriate times with 2 ml of DMEM-FBS (HeLa and 3T3-L1) or MEM-α-FBS (LM8) containing various compounds in 35-mm plastic dishes (tissue culture treated µ-Dish; ibidi, Martinsried, Germany). The cells were washed twice with 2 ml of PBS(–), submerged in 2 ml of Hepes buffer (pH 7.4), and observed at room temperature with a Keyence BZ-9000 fluorescence microscope (Osaka, Japan) equipped with an oil immersion 100× lens (CFI Plan Apo VC100XH) and multi-filters that can distinguish four fluorescent probes simultaneously. Original digitized images of z-stack sections were taken at 0.4- µm intervals, which were then treated (haze-reduced) with the Keyence BZ analyzer software (for deconvolution fluorescence imaging), and compiled into 3D images; when 3D images were constructed, nonlinear adjustment was performed to obtain clear (high contrast) images without haze. All color images are presented in pseudo colors.
Structure (SMILES),Effect on cell growth in LM8 cells [1],IC50 [1],Effect on basal rate of O2 consumption [2],PC100 (µM) for Mito. O2 consumption [2],Expression of cyclin D1 [3],Expression of cyclin D3 [3],Mitochondrial swelling [4],Effect on mitochondrial O2 consumption ([2]; 0.1–1 µM)
CCCCCC(=O)c1c(O)cc(OCCCCNC(=O)CCC2=[N+]3C(=Cc4c(C)cc(C)n4[B-]3(F)F)C=C2)c(Cl)c1O [BODIPY-DIF-3],dose-dependently suppressed cell growth,12.2 µM,dose-dependently promoted,25 µM,significantly decreased,significantly decreased,caused many mitochondria to swell in most cells within 1 day,
"CCCCCC(=O)c1c(O)cc(OCCCC)c(Cl)c1O [Bu-DIF-3, 1-(3-chloro-2,6-dihydroxy-4-butoxyphenyl)hexan-1-one]",,2 µM,dose-dependently promoted,1.7 µM,significantly decreased,significantly decreased,the mitochondria in all cells swelled greatly,
"N#CC(C#N)=NNc1cccc(Cl)c1 [CCCP, carbonyl cyanide m-chlorophenylhydrazone, reference compound]",dose-dependently suppressed cell growth,6.8 µM,,0.43 µM,significantly suppressed,significantly suppressed,Mitochondrial swelling was induced in most HeLa cells,promoted mitochondrial O2 consumption in a dose-dependent manner
"CCCCCC(=O)c1c(O)cc(OC)c(Cl)c1O [DIF-3, 1-(3-chloro-2,6-dihydroxy-4-methoxyphenyl)hexan-1-one]",,15.5 µM,dose-dependently promoted,12 µM,significantly decreased,significantly decreased,the mitochondria in all cells swelled greatly,
